According to ChEMBL document CHEMBL3045028, “Synthesis, AntiBacteriol, and Antifungal Activities of Some New Benzimidazoles” (1992):
Activity calls are given as the source filed them. The rule behind the calls is not given here.

Key:
Assay type in all cases: functional
[1] = system: Pseudomonas savastanoi pv. phaseolicola; assay: In vitro antibacterial activity against Pseudomonas syringae pv. phaseolicola E81 assessed as inhibition at 0.1 %
[2] = system: Pseudomonas savastanoi pv. glycinea; assay: In vitro antibacterial activity against Pseudomonas syringae pv. glycinea S1 assessed as inhibition at 0.1 %
[3] = system: Xanthomonas euvesicatoria; assay: In vitro antibacterial activity against Xanthomonas euvesicatoria P-2092 assessed as inhibition at 0.1 %
[4] = system: Xanthomonas campestris pv. campestris; assay: In vitro antibacterial activity against Xanthomonas campestris pv. campestris KF2 assessed as inhibition at 0.1 %
Pseudomonas viridiflava = assay: In vitro antibacterial activity against Pseudomonas viridiflava 8 assessed as inhibition at 0.1 %
[5] = system: Xanthomonas phaseoli pv. phaseoli; assay: In vitro antibacterial activity against Xanthomonas campestris pv. phaseoli assessed as inhibition at 0.1 %
Agrobacterium sp. = assay: In vitro antibacterial activity against Agrobacterium radiobacter pv. tumefaciens assessed as inhibition at 0.1 %
[6] = system: Agrobacterium tumefaciens; assay: In vivo antibacterial activity against Agrobacterium tumefaciens infected carrots assessed as effective at 0.01%
Botrytis cinerea = assay: In vitro antifungal activity against Botryotinia fuckeliana assessed as inhibition at 0.1 %

| Structure (SMILES) | diameter of the inhibition zone (DIZ) [3] [cm] | diameter of the inhibition zone (DIZ) [4] [cm] | diameter of the inhibition zone (DIZ) (Agrobacterium sp.) [cm] | diameter of the inhibition zone (DIZ) (Botrytis cinerea) [cm] | further results |
| --- | --- | --- | --- | --- | --- |
| Nc1nc2ccccc2n1/N=C/c1ccc([N+](=O)[O-])o1 | 1 | 2 |  |  | diameter of the inhibition zone (DIZ) [1]: 2 cm; diameter of the inhibition zone (DIZ) [2]: 2 cm; diameter of the inhibition zone (DIZ) (Pseudomonas viridiflava): 2 cm; diameter of the inhibition zone (DIZ) [5]: 3 cm |
| Cc1cc2nc(/N=C/c3ccc([N+](=O)[O-])o3)n(Cc3cccc(F)c3)c2cc1C | 3 |  | 3 |  | diameter of the inhibition zone (DIZ) [5]: 3 cm |
| Cc1ccc(Cn2c(N)nc3cc(C)c(C)cc32)cc1 | 2 | 2 | 3 |  |  |
| Cc1cccc(OCn2c(/N=C/c3ccc([N+](=O)[O-])o3)nc3ccccc32)c1 | 3 | 3 | 3 |  |  |
| Cc1cc2c(cc1C)[n+](N)cn2Cc1ccc(Cl)cc1.O=S(=O)([O-])c1ccccc1 | 2 | 2 |  |  | inhibition [1]: inactive; inhibition [2]: inactive; diameter of the inhibition zone (DIZ) (Pseudomonas viridiflava): 2 cm; diameter of the inhibition zone (DIZ) [5]: 2 cm |
| Cc1cccc(Cn2c(/N=C/c3ccc([N+](=O)[O-])o3)nc3ccccc32)c1 | 2 | 3 | 3 |  |  |
| CCCCCCn1c(/N=C/c2ccc([N+](=O)[O-])o2)nc2ccccc21 | 2 | 2 | 3 |  | Efficacy [6]: 70% |
| Cc1cc2nc(N)n(Cc3cccc(F)c3)c2cc1C | 3 | 3 | 3 |  |  |
| O=[N+]([O-])c1ccc(/C=N/c2nc3ccccc3[nH]2)o1 | 1 | 2 | 3 | 3 | diameter of the inhibition zone (DIZ) [1]: 2 cm; diameter of the inhibition zone (DIZ) [2]: 2 cm; diameter of the inhibition zone (DIZ) (Pseudomonas viridiflava): 2 cm; diameter of the inhibition zone (DIZ) [5]: 3 cm |
| Cc1ccc(Cn2c(N)nc3ccccc32)cc1 | 3 | 3 | 3 |  |  |
| Cc1ccc(Cn2c(/N=C/c3ccc([N+](=O)[O-])o3)nc3ccccc32)cc1 |  |  |  | 1 | Efficacy [6]: 70%; inhibition [1]: inactive; diameter of the inhibition zone (DIZ) [2]: 1 cm; inhibition [3]: inactive; inhibition [4]: inactive; inhibition (Pseudomonas viridiflava): inactive; inhibition [5]: inactive |
| Cc1ccccc1Cn1c(/N=C/c2ccc([N+](=O)[O-])o2)nc2ccccc21 | 3 | 3 | 3 |  |  |
| Cc1cc2ncn(Cc3ccc(Cl)cc3)c2cc1C | 1 | 1 |  |  | Efficacy [6]: 30%; inhibition [1]: inactive; inhibition [2]: inactive; inhibition (Botrytis cinerea): inactive; inhibition (Pseudomonas viridiflava): inactive; inhibition [5]: inactive |
| Nc1nc2ccccc2n1Cc1cccc(F)c1 | 3 | 3 | 3 |  |  |
| Cc1ccccc1Cn1c(N)nc2ccccc21 | 3 | 3 | 3 |  |  |
| Cc1ccc(Cn2c(/N=C/c3ccc([N+](=O)[O-])o3)nc3cc(C)c(C)cc32)cc1 | 3 |  | 3 |  | diameter of the inhibition zone (DIZ) [5]: 3 cm |
| CCCCn1c(/N=C/c2ccc([N+](=O)[O-])o2)nc2cc(C)c(C)cc21 |  |  |  | 3 |  |
| Cc1cc2nc(/N=C/c3ccc([N+](=O)[O-])o3)[nH]c2cc1C | 3 | 3 | 3 |  |  |
| Cc1cc2nc(/N=C/c3ccc([N+](=O)[O-])o3)n(Cc3ccccc3Cl)c2cc1C | 3 |  | 3 |  | diameter of the inhibition zone (DIZ) [5]: 3 cm |
| CCCCCCn1c(N)nc2ccccc21 |  |  |  | 3 | Efficacy [6]: 30% |
| Cc1cc2nc(N)n(Cc3ccc(Cl)cc3)c2cc1C | 1 | 2 |  |  | diameter of the inhibition zone (DIZ) [1]: 2 cm; diameter of the inhibition zone (DIZ) [2]: 2 cm; diameter of the inhibition zone (DIZ) (Pseudomonas viridiflava): 1 cm; diameter of the inhibition zone (DIZ) [5]: 1 cm |
| Cc1cccc(Cn2cnc3cc(C)c(C)cc32)c1 | 3 | 2 | 3 |  |  |

| Structure (SMILES) | diameter of the inhibition zone (DIZ) [3] [cm] | diameter of the inhibition zone (DIZ) [4] [cm] | diameter of the inhibition zone (DIZ) (Agrobacterium sp.) [cm] | diameter of the inhibition zone (DIZ) (Botrytis cinerea) [cm] | further results |
| --- | --- | --- | --- | --- | --- |
| CCn1cnc2cc(C)c(C)cc21 | 3 | 3 | 3 |  |  |
| Cc1ccc(Cn2cnc3cc(C)c(C)cc32)cc1 |  | 2 |  | 1 | diameter of the inhibition zone (DIZ) [1]: 1 cm; diameter of the inhibition zone (DIZ) [2]: 1 cm; inhibition [3]: inactive; diameter of the inhibition zone (DIZ) (Pseudomonas viridiflava): 1 cm; inhibition [5]: inactive |
| Cc1cc2nc(N)n(/N=C/c3ccc([N+](=O)[O-])o3)c2cc1C | 3 | 3 | 3 |  |  |
| Cc1cc2nc(/N=C/c3ccc([N+](=O)[O-])o3)n(Cc3cccc(Cl)c3)c2cc1C |  |  | 3 |  | inhibition (Botrytis cinerea): inactive |
| CC(C)(C)n1c(N)nc2ccccc21 |  |  |  | 3 |  |
| Nc1nc2ccccc2n1Cc1ccc(Cl)cc1 |  | 1 |  | 1 | diameter of the inhibition zone (DIZ) [1]: 1 cm; diameter of the inhibition zone (DIZ) [2]: 1 cm; inhibition [3]: inactive; diameter of the inhibition zone (DIZ) (Pseudomonas viridiflava): 1 cm; inhibition [5]: inactive |
| Cc1cc2ncn(Cc3cccc(Cl)c3)c2cc1C | 2 | 1 |  | 1 | inhibition [1]: inactive; diameter of the inhibition zone (DIZ) [2]: 2 cm; diameter of the inhibition zone (DIZ) (Pseudomonas viridiflava): 2 cm; inhibition [5]: inactive |
| O=[N+]([O-])c1ccc(/C=N/c2nc3ccccc3n2Cc2cccc(Cl)c2)o1 | 3 |  |  | 1 | Efficacy [6]: 100%; inhibition [1]: inactive; diameter of the inhibition zone (DIZ) [2]: 1 cm; inhibition [4]: inactive; inhibition (Pseudomonas viridiflava): inactive; inhibition [5]: inactive |
| Nc1nc2ccccc2n1Cc1ccccc1Cl | 2 | 3 |  |  | inhibition [1]: inactive; inhibition [2]: inactive; inhibition (Botrytis cinerea): inactive; diameter of the inhibition zone (DIZ) (Pseudomonas viridiflava): 2 cm; diameter of the inhibition zone (DIZ) [5]: 1 cm |
| Cc1cc2ncn(Cc3ccccc3C)c2cc1C | 3 | 2 | 3 |  |  |
| CCn1c(N)nc2cc(C)c(C)cc21 | 3 | 3 | 2 | 3 |  |
| CCCCn1c(/N=C/c2ccc([N+](=O)[O-])o2)nc2ccccc21 | 1 | 3 | 3 | 3 | Efficacy [6]: 70% |
| Cc1cc2nc(N)n(Cc3cccc(Cl)c3)c2cc1C | 3 | 3 | 2 | 3 | diameter of the inhibition zone (DIZ) [1]: 2 cm; diameter of the inhibition zone (DIZ) [2]: 2 cm; diameter of the inhibition zone (DIZ) (Pseudomonas viridiflava): 2 cm; diameter of the inhibition zone (DIZ) [5]: 3 cm |
| Cc1cc2nc(N)n(Cc3ccccc3Cl)c2cc1C | 3 | 2 | 3 |  |  |
| COc1cccc(Cn2cnc3cc(C)c(C)cc32)c1 | 3 | 2 | 3 |  |  |
| CCCCn1cnc2cc(C)c(C)cc21 | 2 | 2 | 3 | 3 |  |
| O=[N+]([O-])c1ccc(/C=N/c2nc3ccccc3n2Cc2ccc(Cl)cc2)o1 |  |  | 3 |  | inhibition (Botrytis cinerea): inactive |
| Cc1cc2ncn(C(C)(C)C)c2cc1C | 3 | 3 | 3 |  |  |
| CCn1c(N)nc2ccccc21 | 1 | 3 | 3 | 3 |  |
| CCn1c(/N=C/c2ccc([N+](=O)[O-])o2)nc2ccccc21 | 1 | 3 | 3 | 3 | Efficacy [6]: 70% |
| O=[N+]([O-])c1ccc(/C=N/c2nc3ccccc3n2Cc2cccc(F)c2)o1 | 3 | 3 | 3 |  |  |
